Patent US20260308159A1, “BICYCLIC HETEROARYLAMIDES HAVING GPR68 MODULATING ACTIVITY” (RECURSION PHARMACEUTICALS, INC., priority 2023, published 2026)

Each compound was assayed against T1, human GPR68 (Homo sapiens, UniProt Q15743) (assay: GPR68 Biochemical Assay (Promega GloSensor cAMP assay, GPR68 antagonism)). Details: HEK293T cells transiently expressing hGPR68, antagonism of pH 5.5 stimulated cAMP, 15 min, read-out: hGPR68 IC50.
T1 construct: encoding full-length human GPR68 (uniprot ID: Q15743); expressed in transfected cells; host or cells: HEK293T
T1 sequence (Q15743 whole entry): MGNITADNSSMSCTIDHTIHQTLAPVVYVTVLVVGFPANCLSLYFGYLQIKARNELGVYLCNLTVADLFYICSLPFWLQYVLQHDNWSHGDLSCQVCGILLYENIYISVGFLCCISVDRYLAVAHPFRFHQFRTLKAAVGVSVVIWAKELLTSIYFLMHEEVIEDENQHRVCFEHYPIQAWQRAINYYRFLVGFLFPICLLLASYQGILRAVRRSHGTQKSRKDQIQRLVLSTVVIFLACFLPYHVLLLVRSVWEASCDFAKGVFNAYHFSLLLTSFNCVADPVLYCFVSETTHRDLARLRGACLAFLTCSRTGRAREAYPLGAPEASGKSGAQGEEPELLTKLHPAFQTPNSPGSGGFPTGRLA
Format: cell-based
Procedure, shortened: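 Readout is GloSensor cAMP luminescence after 15 min at room temperature, normalised between pH 5.5 stimulation and pH 8.0 minimum controls; IC50 fitted sigmoidally. Test compounds, up to 50 μM final (9-point half-log, 0.5% DMSO), were co-added with pH 5.5 buffer to HEK293T cells transiently expressing full-length human GPR68 plus GloSensor.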
In the case of COCc1nn2c(C(=O)NC3Cc4ccccc4C3(F)F)ccnc2c1C(N)=O (stereo not shown) [Compound 152, N7-(1,1-difluoroindan-2-yl)-2-(methoxymethyl)pyrazolo[1,5-a]pyrimidine-3,7-dicarboxamide], the IC50 is reported as < 50 nM.
With COCc1nn2c(C(=O)NC3COc4c(F)cccc43)ccnc2c1C(N)=O (stereo not shown) [Compound 192, N7-(7-fluoro-2,3-dihydrobenzofuran-3-yl)-2-(methoxymethyl)pyrazolo[1,5-a]pyrimidine-3,7-dicarboxamide] the IC50 was < 50 nM.
In the case of COCc1nn2c(C(=O)NC3COc4ccc(Br)cc4C3)ccnc2c1C(N)=O (stereo not shown) [Compound 144, N7-(6-bromochroman-3-yl)-2-(methoxymethyl)pyrazolo[1,5-a]pyrimidine-3,7-dicarboxamide], the IC50 is reported as < 50 nM.
COCc1nn2c(C(=O)N[C@@H]3CCCc4ccccc43)ccnc2c1C(N)=O [Compound 74, 2-(methoxymethyl)-N7-[(1R)-tetralin-1-yl]pyrazolo[1,5-a]pyrimidine-3,7-dicarboxamide] was tested, and the IC50 was < 50 nM.
COCc1nn2c(C(=O)N[C@H]3C[C@H](C)C3)ccnc2c1C(N)=O [Compound 86, 2-(methoxymethyl)-N7-(trans-3-methylcyclobutyl)pyrazolo[1,5-a]pyrimidine-3,7-dicarboxamide] gave an IC50 of 50 to 500 nM.
With COCc1nc2c(C(=O)NC3CC(F)(F)C3)ccnn2c1C(N)=O [Compound 54, N8-(3,3-difluorocyclobutyl)-2-(methoxymethyl)imidazo[1,2-b]pyridazine-3,8-dicarboxamide] the IC50 was < 50 nM.
In the case of COCc1nn2c(C(=O)N[C@@H]3CCOc4cc(F)ccc43)ccnc2c1C(N)=O [Compound 166, N7-[(4R)-7-fluorochroman-4-yl]-2-(methoxymethyl)pyrazolo[1,5-a]pyrimidine-3,7-dicarboxamide], the IC50 is reported as < 50 nM.
In the case of NC(=O)c1c(CO)nn2c(C(=O)NC3Cc4ccccc4C3)ccnc12 [Compound 204, 2-(hydroxymethyl)-N7-indan-2-yl-pyrazolo[1,5-a]pyrimidine-3,7-dicarboxamide], the IC50 is reported as 50 to 500 nM.
With COCc1nn2c(C(=O)NC(c3ccc(F)cc3)C(F)(F)F)ccnc2c1C(N)=O (stereo not shown) [Compound 125, 2-(methoxymethyl)-N7-[2,2,2-trifluoro-1-(4-fluorophenyl)ethyl]pyrazolo[1,5-a]pyrimidine-3,7-dicarboxamide] the IC50 was 500 to 5000 nM.
With COCc1nn2c(C(=O)NC3COc4cc(F)cc(F)c4C3)ccnc2c1C(N)=O (stereo not shown) [Compound 185, N7-(5,7-difluorochroman-3-yl)-2-(methoxymethyl)pyrazolo[1,5-a]pyrimidine-3,7-dicarboxamide] the IC50 was 50 to 500 nM.
COCc1nn2c(C(=O)NC3Cc4cscc4C3)ccnc2c1C(N)=O [Compound 85, N7-(5,6-dihydro-4H-cyclopenta[c]thiophen-5-yl)-2-(methoxymethyl)pyrazolo[1,5-a]pyrimidine-3,7-dicarboxamide] was tested, and the IC50 was < 50 nM.
With CCCc1nn2c(C(=O)NC3Cc4ccccc4C3)ccnc2c1C(N)=O [Compound 139, N7-indan-2-yl-2-propyl-pyrazolo[1,5-a]pyrimidine-3,7-dicarboxamide] the IC50 was < 50 nM.
NC(=O)c1c(C2CC2)nc2c(C(=O)N[C@H]3CCOc4cc(F)ccc43)ccnn12 [Compound 211, 2-cyclopropyl-N8-[(4S)-7-fluorochroman-4-yl]imidazo[1,2-b]pyridazine-3,8-dicarboxamide] was tested, and the IC50 was < 50 nM.
With NC(=O)c1c(C2CCCO2)nn2c(C(=O)N[C@H]3C[C@@H](OC(F)(F)F)C3)ccnc12 (stereo partly drawn) [Compound 203, 2-tetrahydrofuran-2-yl-N7-[cis-3-(trifluoromethoxy)cyclobutyl]pyrazolo[1,5-a]pyrimidine-3,7-dicarboxamide] the IC50 was 50 to 500 nM.
In the case of COCc1nn2c(C(=O)NC3Cc4ccccc4C3)ccnc2c1C(=O)O [Compound 143, 7-(indan-2-ylcarbamoyl)-2-(methoxymethyl)pyrazolo[1,5-a]pyrimidine-3-carboxylic Acid], the IC50 is reported as 50 to 500 nM.
In the case of COCc1nc2c(C(=O)NC3Cc4cc(F)cc(F)c4C3)ccnn2c1C(N)=O (stereo not shown) [Compound 164, N8-(4,6-difluoroindan-2-yl)-2-(methoxymethyl)imidazo[1,2-b]pyridazine-3,8-dicarboxamide], the IC50 is reported as < 50 nM.
For COCc1nc2c(C(=O)NC3Cc4cscc4C3)ccnn2c1C(N)=O [Compound 105, N8-(5,6-dihydro-4H-cyclopenta[c]thiophen-5-yl)-2-(methoxymethyl)imidazo[1,2-b]pyridazine-3,8-dicarboxamide], the IC50 was < 50 nM.
With COCc1nn2c(C(=O)NC3CC(F)(F)c4ccccc43)ccnc2c1C(N)=O (stereo not shown) [Compound 129, N7-(3,3-difluoroindan-1-yl)-2-(methoxymethyl)pyrazolo[1,5-a]pyrimidine-3,7-dicarboxamide] the IC50 was < 50 nM.
Compound COCc1nn2c(C(=O)NCc3ccc(O)cc3)ccnc2c1C(N)=O [Compound 197, N7-[(4-hydroxyphenyl)methyl]-2-(methoxymethyl)pyrazolo[1,5-a]pyrimidine-3,7-dicarboxamide] has an IC50 of 500 to 5000 nM.
Compound C[C@]1(F)C[C@H](NC(=O)c2ccnc3c(C(N)=O)cnn23)C1 [Compound 7, N7-(trans-3-fluoro-3-methyl-cyclobutyl)pyrazolo[1,5-a]pyrimidine-3,7-dicarboxamide] has an IC50 of 5000 to 50000 nM.
With COCc1nn2c(C(=O)NC3CC4(C3)CC(F)(F)C4)ccnc2c1C(N)=O [Compound 126, N7-(2,2-difluorospiro[3.3]heptan-6-yl)-2-(methoxymethyl)pyrazolo[1,5-a]pyrimidine-3,7-dicarboxamide] the IC50 was 50 to 500 nM.
Work on Cc1nn2c(C(=O)NC3CC(F)(F)C3)c(-c3cn[nH]c3)cnc2c1C(N)=O [Compound 32, N7-(3,3-difluorocyclobutyl)-2-methyl-6-(1H-pyrazol-4-yl)pyrazolo[1,5-a]pyrimidine-3,7-dicarboxamide] yielded an IC50 of 500 to 5000 nM.
For NC(=O)c1c(C2CC2)nc2c(C(=O)NC3Cc4ccccc43)ccnn12 (stereo not shown) [Compound 210, N8-(7-bicyclo[4.2.0]octa-1,3,5-trienyl)-2-cyclopropyl-imidazo[1,2-b]pyridazine-3,8-dicarboxamide], the IC50 was < 50 nM.
For COCc1nn2c(C(=O)NCC3CC3(C)C)ccnc2c1C(N)=O (stereo not shown) [Compound 77, N7-[(2,2-dimethylcyclopropyl)methyl]-2-(methoxymethyl)pyrazolo[1,5-a]pyrimidine-3,7-dicarboxamide], the IC50 was 500 to 5000 nM.
Work on Cc1cc(C(=O)NC2CC(F)(F)C2)n2nc(C)c(C(N)=O)c2n1 [Compound 42, N7-(3,3-difluorocyclobutyl)-2,5-dimethyl-pyrazolo[1,5-a]pyrimidine-3,7-dicarboxamide] yielded an IC50 of 50 to 500 nM.
With NC(=O)c1cnn2c(C(=O)NC3Cc4cccc(Oc5ccc(Cl)cc5)c4C3)ccnc12 (stereo not shown) [Compound 16, N7-[4-(4-chlorophenoxy)indan-2-yl]pyrazolo[1,5-a]pyrimidine-3,7-dicarboxamide] the IC50 was 50000 to 100000 nM.
With COCc1nn2c(C(=O)N[C@H]3CC[C@@H](OC(F)(F)F)CC3)ccnc2c1C(N)=O [Compound 132, 2-(methoxymethyl)-N7-[cis-4-(trifluoromethoxy)cyclohexyl]pyrazolo[1,5-a]pyrimidine-3,7-dicarboxamide] the IC50 was 50 to 500 nM.
In the case of COCc1nn2c(C(=O)Nc3ccc(F)c(F)c3)ccnc2c1C(N)=O [Compound 66, N7-(3,4-difluorophenyl)-2-(methoxymethyl)pyrazolo[1,5-a]pyrimidine-3,7-dicarboxamide], the IC50 is reported as < 50 nM.
NC(=O)c1c(C2CC2)nn2c(C(=O)NC3CCC(F)(F)CC3)ccnc12 [Compound 135, 2-cyclopropyl-N7-(4,4-difluorocyclohexyl)pyrazolo[1,5-a]pyrimidine-3,7-dicarboxamide] was tested, and the IC50 was < 50 nM.
NC(=O)c1c(OCC2CC2)nn2c(C(=O)N[C@H]3C[C@@H](OC(F)(F)F)C3)ccnc12 [Compound 162, 2-(cyclopropylmethoxy)-N7-[cis-3-(trifluoromethoxy)cyclobutyl]pyrazolo[1,5-a]pyrimidine-3,7-dicarboxamide] was tested, and the IC50 was 50 to 500 nM.
In the case of COCc1nn2c(C(=O)NCc3ccc4c(c3)CCO4)ccnc2c1C(N)=O [Compound 67, N7-(2,3-dihydrobenzofuran-5-ylmethyl)-2-(methoxymethyl)pyrazolo[1,5-a]pyrimidine-3,7-dicarboxamide], the IC50 is reported as 50 to 500 nM.
In the case of COCc1nn2c(C(=O)NC3CC(F)(F)c4ccccc43)cc(C)nc2c1C(N)=O (stereo not shown) [Compound 232, N7-(3,3-difluoroindan-1-yl)-2-(methoxymethyl)-5-methyl-pyrazolo[1,5-a]pyrimidine-3,7-dicarboxamide], the IC50 is reported as < 50 nM.
For COCc1nn2c(C(=O)NC3CCC(F)(F)CC3)cc(C)nc2c1C(N)=O [Compound 240, N7-(4,4-difluorocyclohexyl)-2-(methoxymethyl)-5-methyl-pyrazolo[1,5-a]pyrimidine-3,7-dicarboxamide], the IC50 was < 50 nM.

Same assay, conditions: hGPR68 IC50, HEK293T cells transiently expressing hGPR68, antagonism of pH 5.5 stimulated cAMP, 15 min
With CC(C)(O)c1nn2c(C(=O)NC3CC(F)(F)C3)ccnc2c1C(N)=O [Compound 213, N7-(3,3-difluorocyclobutyl)-2-(1-hydroxy-1-methyl-ethyl)pyrazolo[1,5-a]pyrimidine-3,7-dicarboxamide] the IC50 was 50 to 500 nM.
NC(=O)c1c(C2CCCO2)nn2c(C(=O)NC3CC(F)(F)C3)ccnc12 (stereo not shown) [Compound 43, N7-(3,3-difluorocyclobutyl)-2-tetrahydrofuran-2-yl-pyrazolo[1,5-a]pyrimidine-3,7-dicarboxamide] gave an IC50 of 50 to 500 nM.
COCc1nn2c(C(=O)Nc3ccc(C(F)(F)F)cn3)ccnc2c1C(N)=O [Compound 59, 2-(methoxymethyl)-N7-[5-(trifluoromethyl)-2-pyridyl]pyrazolo[1,5-a]pyrimidine-3,7-dicarboxamide] was tested, and the IC50 was < 50 nM.
With CC(C)OCc1nn2c(C(=O)NC3CC(F)(F)C3)ccnc2c1C(N)=O [Compound 28, N7-(3,3-difluorocyclobutyl)-2-(isopropoxymethyl)pyrazolo[1,5-a]pyrimidine-3,7-dicarboxamide] the IC50 was 5000 to 50000 nM.
